One compound from patent US20260315446A1, “ANTIFUNGAL COMPOUNDS AND USES THEREOF” (priority 2023, published 2026) can be followed below.

The test system of data set [1] is Aspergillus fumigatus (akuBKu80 hFKBP12). The data set is described as follows: MIC/MEC against humanized A. fumigatus strain. Type of data set: cell-based. The procedure:
To confirm that JH-FK-05 was fungal FKBP12-dependent, a humanized A. fumigatus strain (the akuB^Ku80 hFKBP12 strain) expressing a codon-optimized human FKBP12 gene from the Affkbp12 native locus was utilized.
In vitro antifungal activities of FK506, FK520, and analogs were assessed in RPMI 1640 (Sigma-Aldrich) for all strains tested. MICs/minimum effective concentrations (MECs) for each drug were measured using modified Clinical and Laboratory Standards Institute (CLSI) M38-A2 and M27-A3 standard in vitro antifungal susceptibility protocols. Broth microdilution assays for MIC/MEC assessment were performed as described previously (see, Juvvadi P R, et al., 2019, Nat Commun 10:4275). All antifungal assays with C. neoformans were performed at 37° C. Antifungal susceptibility testing for C. albicans was performed in the presence of a uniform 1 μg/mL concentration of fluconazole to sensitize the organism to calcineurin inhibition.

The test system of another data set is C. neoformans H99. Kind of data set: Intravenous model of disseminated cryptococcosis, brain fungal burden (Example 1). In kind it is in vivo, Cryptococcus neoformans in mice. From the text:
The high in vitro antifungal activity of JH-FK-05 presented promising evidence that it might effectively reduce fungal burden in the context of murine infection. Two models of C. neoformans infection were employed to test this hypothesis (FIG. 7A). First, in the intranasal model, animals were anesthetized and infected with 10^5 cells of wild-type H99 C. neoformans via instillation in the animal's nares. These animals were monitored for 14 days and then sacrificed. This model tests the efficacy of JH-FK-05 to treat a pulmonary infection, which is the most common manifestation of early-stage cryptococcosis in patients. Second, the intravenous (i.v.) model approximates the disseminated stage of disease. […]
Wild-type H99 C. neoformans cells were grown overnight at 30° C. in a roller drum in yeast extract-peptone-dextrose (YPD) medium. […] H99 cells were counted with a hemacytometer and diluted to 2×10^6 cells/mL in PBS for the pulmonary model and 2×10^5 cells/mL in PBS for the disseminated model. […]
Mice were euthanized by CO2 inhalation at the predetermined experimental endpoint. […] A 100-μL aliquot of each dilution was plated on antibiotic plates (YPD, 50 μg/mL ampicillin, and 30 µg/mL chloramphenicol), incubated for 48 to 72 h at 30° C., and assessed for CFU. […] Statistical significance was calculated using an ordinary one-way analysis of variance (ANOVA) with Tukey's multiple-comparison test.

A short description of data set [2]: In vivo tolerability of JH-FK-05. The note with it: daily i.p., up to 60 mg/kg. Set-up: species or system mouse. The protocol: Based on the in vitro evidence of reduced immunosuppressive activity of JH-FK-05, it was hypothesized that this reduction would translate into reduced immunosuppression in an in vivo model. The murine model for immunosuppression measures the T cell-dependent proliferation of two immune cell subtypes in response to immunization with an antigen. Animals were treated daily via intraperitoneal (i.p.) injection with vehicle, 5 mg/kg FK506, or 60 mg/kg JH-FK-05, beginning on day −1 and ending on day 7. […] On day 0, animals were immunized with NP-OVA to stimulate T cell-dependent signaling that would result in proliferation of T follicular helper (Tfh) cells and germinal center (GC) B cells. Animals were sacrificed on day 7, and the proportions of Tfh and GC B cells in the lymph nodes were measured. […]
Groups of 6 female C57BL/6 mice (Jackson Laboratory) were treated daily by intraperitoneal (i.p.) injection with about 100 μL vehicle, 5 mg/kg FK506, or 60 mg/kg JH-FK-05 beginning on day −1. […] Mice were treated and monitored daily until they were sacrificed on day 7. Draining lymph nodes were harvested on day 7, and the populations of T follicular helper cells and GC B cells were analyzed by flow cytometry. Tfh and GC B cells were measured from T Cell Receptor β (TCRβ^+) CD4^+CD44^hi cells and TCRβ^−CD19^+ cells, respectively.

Entries after “also recorded” stand apart in the source; their conditions may differ.

Take `CC[C@@H]1/C=C(\C)C[C@H](C)C[C@H](OC)[C@H]2O[C@@](O)(C(=O)C(=O)N3CCCC[C@H]3C(=O)O[C@H](/C(C)=C/[C@@H]3CC[C@@H](O)[C@H](OC)C3)[C@H](C)[C@@H](O)C/C1=N/NC(C)=O)[C@H](C)C[C@@H]2OC` [JH-FK-05]: the “antifungal activity against hFKBP12-expressing A. fumigatus strain” value in data set [1] is “no detectable antifungal activity”. Further, the MIC/MEC in data set [1] (strain akuBKu80 hFKBP12) was more than 8 µg/mL. In the data set on C. neoformans H99 (day 7, JH-FK-05 60 mg/kg, fluconazole 12 mg/kg, i.p. daily), the “reduction of brain fungal burden” value was 2 fold. In addition, the “blood-brain barrier crossing” value in the data set with C. neoformans H99 (inferred from brain fungal burden) is “can cross the blood-brain barrier”. The “tolerability” value in data set [2] was “tolerated at a dose as high as 60 mg/kg; also recorded: well tolerated by animals throughout the course of treatment; also recorded: animals tolerated JH-FK-05 treatment for the full treatment period”.
